According to patent publication US10704076B2, “Multi-tiered high through-put screen for compounds effective against bacterial biofilm and compounds effective for inhibiting and eradicating bacterial biofilm” (University of Cincinnati, priority 2013, dated 2020):

Key:
[1] = system: differentiated THP-1 cells; experiment: LDH cytotoxicity assay; type: cell-based; details: 48 hr
Procedure: Following identification as an HTS broad spectrum hit and confirmation by CLSM, a cytotoxicity assay was performed on compounds 3, 7, 8 and 11. The lactate dehydrogenase assay (LDH) is commonly used as an enzymatic marker to quantitatively correlate cell death via leakage of the enzyme from dead or dying cells. An LDH assay was used to investigate the toxicity of compounds on A549 and differentiated THP-1 cells. […] Finally, 25 μl of Stop Solution was added, incubated at room temperature for 5 min, and the fluorescence signal was detected using a Synergy 2 Multi-Mode Microplate Reader (Ex. […]/Em. 590). The unit of measurement is the Relative Fluorescence Unit (RFU). The cytotoxicity of the compounds was calculated based on the percentage of compound RFUs measured (Experimental) in comparison to the RFU of the DMSO treated cells as those that were completely lysed (Maximum LDH Release). […]
The cytotoxicity of the broad agent hit compounds was examined in differentiated human THP-1, a human acute monocytic leukemia cell line and A549, a human lung adenocarcinoma epithelial cell line. […] Compounds were assessed at varying concentrations of 0, 260, 290, 300, and 570 μM for compounds 7, 11, 8, and 3, respectively, for the cytotoxicity assays. […]

[2] = system: P. aeruginosa established biofilm; experiment: CLSM, effect of compound on the pre-existing biofilm; type: cell-based, Pseudomonas aeruginosa
P. aeruginosa biofilm = experiment: HTS total biofilm formation assay (crystal violet staining); type: cell-based, Pseudomonas aeruginosa; details: for AC50: 10 point dose-response 0.1-50 μM
Text: Each HTS tier consisted of: (i) primary screening, (ii) confirmation screening and (iii) dose-response curve screening. Each tier of HTS included three distinct biological process assays. The first assay was an optical density measurement of bacteria growth in the presence of each compound reported as a total bacteria growth. In the second assay, resazurin solution was used as an indicator of metabolic activity to measure the live bacteria in the biofilms, reported as live biofilm. The final assay was crystal violet staining, which indicated the amount of biofilm formation and the effect of each compound on this process, reported as total biofilm formation.
Briefly, stationary phase bacteria grown in L-broth were diluted 1:200 into fresh L-broth and 50 μM of each test compound. After 20-24 hours, the optical density (OD560) of each suspension was measured using Zeiss Plate::Vision with a 560 BP filter (560 nm, 2.5% light intensity, 1 mm focus to bottom of plate, and exposure time of 100 ms). To measure bacterial viability in the biofilm, 50 μl of a 5 mg/ml resazurin solution in L-broth was added to each well after washing 3 times with 50 μl of PBS. The plates were then incubated at 37° C. for 30 or 180 min for A. baumannii and P. aeruginosa biofilms, respectively. Fluorescence was measured using Zeiss Plate::Vision at excitation and emission wavelengths of 535 and 580 nm, 100 ms exposure time, 2.5% intensity and a 2 mm focus to the bottom of the biofilms. To assess biofilm formation, plates were washed 3 times with PBS and then 50 μl of 0.01% of crystal violet was added to each well to assess bacterial biofilm formation as described in a similar borosilicate tube assay by O'Toole and Kolter. After incubation at room temperature for 30 min and removal of the crystal violet solution by washing with PBS, 95% ethanol was added to solubilize the crystal violet followed by incubation for 20 min at room temperature. Finally, the optical density of each plate was determined using measured by Zeiss Plate::Vision using the same settings used to measure total bacterial growth. These 3 steps were used in each of the three tiers for the HTS process: (i) single point primary screening at 10 μM, (ii) triplicate confirmation of hits from (i) at 10 μM and (iii) determination of AC50 values in 10 point dose-response at a concentration range of 0.1-50 μM) in hits from (ii). The AC50 represents the concentration of compound that inhibits 50% of bacterial growth, bacterial viability, or biofilm formation. Genedata Screener® Assay Analyzer Software (Ver. 9.0.0 Standard) was used to analyze data from all assay tiers. Compounds with an AC50 of less than 20 μM in one of the biological assays from the dose response screen were subject to additional investigation.

| SMILES | cytotoxicity (LDH) ([1]; 57 μM) [%] | cytotoxicity (LDH), change against 57 μM ([1]; 570 μM) | effective on established P. aeruginosa biofilm at 100 μM (CLSM, in words) [2] | AC50 (P. aeruginosa biofilm; Pseudomonas aeruginosa) [µM] | AC50 (P. aeruginosa biofilm) [µM] | HTS assay results: Biofilm Formation (P. aeruginosa biofilm; Y / —) |
| --- | --- | --- | --- | --- | --- | --- |
| Cn1sc(Cl)c(C#N)c1=O [Compound 3, 5-chloro-2-methyl-3-oxo-1,2-thiazole-4-carbonitrile] | 60 | decreased | effective at killing | 3.07 | – | – |
| NC(=S)N1CCN(c2cc3c(cc2F)c(=O)c(C(=O)O)cn3C2CC2)CC1 [Compound 7, 7-(4-carbamothioylpiperazin-1-yl)-1-cyclopropyl-6-fluoro-4-oxoquinoline-3-carboxylic acid] | – | – | effective | 7.81 | – | – |
| O=C(O)c1cn(C2CC2)c2c(F)c(N3CC(O)C3)c(F)cc2c1=O [Compound 8, 1-cyclopropyl-6,8-difluoro-7-(3-hydroxyazetidin-1-yl)-4-oxoquinoline-3-carboxylic acid] | – | – | – | – | 10.3 | —* (AC50 higher than 20 μM) |
| O=C(O)c1cn(C2CC2)c2c(F)c(-c3ccncc3)c(F)cc2c1=O [Compound 11, 7-(4-pyridyl)-1-cyclopropyl-6,8-difluoro-4-oxoquinoline-3-carboxylic acid] | – | – | – | 7.4 | – | – |
